The values below come from patent US20100210506A1, “INTRANASAL ADMINISTRATION OF RAPID ACTING INSULIN” (MDRNA, INC., priority 2005, published 2010).

The subject of data set [1] is S. aureus, A. niger, P. auerignosa. The experiment in a line: Antimicrobial Effectiveness Testing, U.S. Pharmacopeial (USP <51>). Format: cell-based. The note with it: USP and EP AET, insulin nasal spray formulations at neutral pH. On the procedure:
AET Study 1 was conducted to determine the Antimicrobial Effectiveness (AET) of an insulin nasal spray placebo with methylparaben sodium, propylparaben sodium, and propylene glycol. Additionally, AET Study 1 examined the AET of increased EDTA alone. Approximately 120 mL of each formulation was manufactured and tested in duplicate (n=2 analyses per sample).
(§1) The AET methods used were in compliance with the requirements for U.S. Pharmacopeial (USP) and European Pharmacopeial (EP) AET and are described in Tables 34 and 35, respectively. The formulations were also tested for pH (per SOP 403), appearance (visual), and osmolality (per SOP 4000).

Data set [2] is described as follows: pH, appearance (visual) and osmolality of AET formulations. Conditions: preservative within insulin nasal spray formulation. Format: physicochemical. On the procedure:
as §1

Entries after “also recorded” stand apart in the source; their conditions may differ.

Take `O=C([O-])c1ccccc1.[Na+]` [sodium benzoate]: the “antimicrobial effectiveness as preservative” value (from here on “antimicrobial effectiveness”) in data set [1] is given as “not effective preservatives at neutral pH”.

In the case of `OCc1ccccc1` [Benzyl alcohol], the “antimicrobial effectiveness” value in data set [1] is given as “not effective preservatives at neutral pH; also recorded: ineffective as antimicrobial reagents”; in data set [1] (listed as benzyl alcohol), “not effective preservatives”.

Regarding `CCCCCCCCCCCCC[N+](C)(C)Cc1ccccc1` [Benzalkonium chloride], the “antimicrobial effectiveness” value in data set [1] was “excellent preservative”; in data set [1] (listed as benzakonium chloride), “best antimicrobial performance”. For the same molecule, the compatibility with insulin entry is given as “incompatible with insulin” in data set [2] and “incompatible with insulin (caused precipitation)” in data set [2] (listed as benzakonium chloride).

For `CCO` [Ethanol], the “antimicrobial effectiveness” value in data set [1] was “antimicribal activity similar to that of methylparaben sodium/propylparaben sodium/propylene glycol; also recorded: not an effective preservative (at 1%)”.

With `Cc1cccc(O)c1` [m-cresol], in data set [1], the “antimicrobial effectiveness” value is reported as “not effective preservatives”.
